# In ChEMBL document CHEMBL4665642, “Anticancer profile of newly synthesized BRAF inhibitors possess 5-(pyrimidin-4-yl)imidazo[2,1-b]thiazole scaffold” (Bioorg Med Chem, 2019):
# Assays:
# Type in all cases: functional
# Conditions in all cases: read-out: Activity
# NCI-H322M = assay: Cytotoxicity against human NCI-H322M cells assessed as cell viability at 10 uM incubated for 48 hrs by sulforhodamine B assay relative to control
# TK-10 = assay: Cytotoxicity against human TK-10 cells assessed as cell viability at 10 uM incubated for 48 hrs by sulforhodamine B assay relative to control
# CAKI-1 = assay: Cytotoxicity against human CAKI-1 cells assessed as cell viability at 10 uM incubated for 48 hrs by sulforhodamine B assay relative to control
# MCF7 = assay: Cytotoxicity against human MCF7 cells assessed as cell viability at 10 uM incubated for 48 hrs by sulforhodamine B assay relative to control
# NCI/ADR-RES = assay: Cytotoxicity against human NCI/ADR-RES cells assessed as cell viability at 10 uM incubated for 48 hrs by sulforhodamine B assay relative to control
# SF-539 = assay: Cytotoxicity against human SF-539 cells assessed as cell viability at 10 uM incubated for 48 hrs by sulforhodamine B assay relative to control
# Malme-3M = assay: Cytotoxicity against human Malme-3M cells assessed as cell viability at 10 uM incubated for 48 hrs by sulforhodamine B assay relative to control
# HOP-92 = assay: Cytotoxicity against human HOP-92 cells assessed as cell viability at 10 uM incubated for 48 hrs by sulforhodamine B assay relative to control
# U-251 = assay: Cytotoxicity against human U-251 cells assessed as cell viability at 10 uM incubated for 48 hrs by sulforhodamine B assay relative to control
# M14 = assay: Cytotoxicity against human M14 cells assessed as cell viability at 10 uM incubated for 48 hrs by sulforhodamine B assay relative to control
# A549 = assay: Cytotoxicity against human A549 cells assessed as cell viability at 10 uM incubated for 48 hrs by sulforhodamine B assay relative to control
# LOX IMVI = assay: Cytotoxicity against human LOX IMVI cells assessed as cell viability at 10 uM incubated for 48 hrs by sulforhodamine B assay relative to control
# OVCAR-5 = assay: Cytotoxicity against human OVCAR-5 cells assessed as cell viability at 10 uM incubated for 48 hrs by sulforhodamine B assay relative to control
# SNB-75 = assay: Cytotoxicity against human SNB-75 cells assessed as cell viability at 10 uM incubated for 48 hrs by sulforhodamine B assay relative to control
# HOP-62 = assay: Cytotoxicity against human HOP-62 cells assessed as cell viability at 10 uM incubated for 48 hrs by sulforhodamine B assay relative to control
# Hs-578T = assay: Cytotoxicity against human HS-578T cells assessed as cell viability at 10 uM incubated for 48 hrs by sulforhodamine B assay relative to control
# MDA-MB-435 = assay: Cytotoxicity against human MDA-MB-435 cells assessed as cell viability at 10 uM incubated for 48 hrs by sulforhodamine B assay relative to control
# HCT-116 = assay: Cytotoxicity against human HCT-116 cells assessed as cell viability at 10 uM incubated for 48 hrs by sulforhodamine B assay relative to control
# PC-3 = assay: Cytotoxicity against human PC-3 cells assessed as cell viability at 10 uM incubated for 48 hrs by sulforhodamine B assay relative to control
# SF-268 = assay: Cytotoxicity against human SF-268 cells assessed as cell viability at 10 uM incubated for 48 hrs by sulforhodamine B assay relative to control
# SK-MEL-2 = assay: Cytotoxicity against human SK-MEL-2 cells assessed as cell viability at 10 uM incubated for 48 hrs by sulforhodamine B assay relative to control
# SNB-19 = assay: Cytotoxicity against human SNB-19 cells assessed as cell viability at 10 uM incubated for 48 hrs by sulforhodamine B assay relative to control
# UACC-257 = assay: Cytotoxicity against human UACC-257 cells assessed as cell viability at 10 uM incubated for 48 hrs by sulforhodamine B assay relative to control
# BT-549 = assay: Cytotoxicity against human BT-549 cells assessed as cell viability at 10 uM incubated for 48 hrs by sulforhodamine B assay relative to control
# SR = assay: Cytotoxicity against human SR cells assessed as cell viability at 10 uM incubated for 48 hrs by sulforhodamine B assay relative to control
# SW-620 = assay: Cytotoxicity against human SW-620 cells assessed as cell viability at 10 uM incubated for 48 hrs by sulforhodamine B assay relative to control
# RXF 393 = assay: Cytotoxicity against human RXF 393 cells assessed as cell viability at 10 uM incubated for 48 hrs by sulforhodamine B assay relative to control
# SK-MEL-5 = assay: Cytotoxicity against human SK-MEL-5 cells assessed as cell viability at 10 uM incubated for 48 hrs by sulforhodamine B assay relative to control
# HCC 2998 = assay: Cytotoxicity against human HCC 2998 cells assessed as cell viability at 10 uM incubated for 48 hrs by sulforhodamine B assay relative to control
# MDA-MB-231 = assay: Cytotoxicity against human MDA-MB-231 cells assessed as cell viability at 10 uM incubated for 48 hrs by sulforhodamine B assay relative to control
# EKVX = assay: Cytotoxicity against human EKVX cells assessed as cell viability at 10 uM incubated for 48 hrs by sulforhodamine B assay relative to control
# RPMI-8226 = assay: Cytotoxicity against human RPMI-8226 cells assessed as cell viability at 10 uM incubated for 48 hrs by sulforhodamine B assay relative to control
# NCI-H226 = assay: Cytotoxicity against human NCI-H226 cells assessed as cell viability at 10 uM incubated for 48 hrs by sulforhodamine B assay relative to control
# NCI-H522 = assay: Cytotoxicity against human NCI-H522 cells assessed as cell viability at 10 uM incubated for 48 hrs by sulforhodamine B assay relative to control
# NCI-H23 = assay: Cytotoxicity against human NCI-H23 cells assessed as cell viability at 10 uM incubated for 48 hrs by sulforhodamine B assay relative to control
# OVCAR-8 = assay: Cytotoxicity against human OVCAR-8 cells assessed as cell viability at 10 uM incubated for 48 hrs by sulforhodamine B assay relative to control
# HCT-15 = assay: Cytotoxicity against human HCT-15 cells assessed as cell viability at 10 uM incubated for 48 hrs by sulforhodamine B assay relative to control
# DU-145 = assay: Cytotoxicity against human DU-145 cells assessed as cell viability at 10 uM incubated for 48 hrs by sulforhodamine B assay relative to control
# UO-31 = assay: Cytotoxicity against human UO-31 cells assessed as cell viability at 10 uM incubated for 48 hrs by sulforhodamine B assay relative to control
# SF-295 = assay: Cytotoxicity against human SF-295 cells assessed as cell viability at 10 uM incubated for 48 hrs by sulforhodamine B assay relative to control
# IGROV-1 = assay: Cytotoxicity against human IGROV-1 cells assessed as cell viability at 10 uM incubated for 48 hrs by sulforhodamine B assay relative to control
smiles,measurement,setting,value
O=C(NCCNc1nccc(-c2c(-c3cccc(F)c3)nc3sccn23)n1)c1ccccc1,viability at 10 µM,NCI-H322M,64.8%
same,viability at 10 µM,TK-10,73%
same,viability at 10 µM,CAKI-1,36.4%
same,viability at 10 µM,MCF7,23.7%
same,viability at 10 µM,NCI/ADR-RES,64.9%
same,viability at 10 µM,SF-539,81.2%
same,viability at 10 µM,Malme-3M,23.7%
same,viability at 10 µM,HOP-92,82.2%
same,viability at 10 µM,U-251,59.4%
same,viability at 10 µM,M14,28.4%
same,viability at 10 µM,A549,26.7%
same,viability at 10 µM,LOX IMVI,35.1%
same,viability at 10 µM,OVCAR-5,79.9%
same,viability at 10 µM,SNB-75,54.6%
same,viability at 10 µM,HOP-62,77.5%
same,viability at 10 µM,Hs-578T,64.7%
same,viability at 10 µM,MDA-MB-435,27%
same,viability at 10 µM,HCT-116,25.6%
same,viability at 10 µM,PC-3,62.9%
same,viability at 10 µM,SF-268,58.8%
same,viability at 10 µM,SK-MEL-2,51.4%
same,viability at 10 µM,SNB-19,63.5%
same,viability at 10 µM,UACC-257,63.1%
same,viability at 10 µM,BT-549,71.2%
same,viability at 10 µM,SR,29.4%
same,viability at 10 µM,SW-620,52.3%
same,viability at 10 µM,RXF 393,60.6%
same,viability at 10 µM,SK-MEL-5,25.6%
same,viability at 10 µM,HCC 2998,73.8%
same,viability at 10 µM,MDA-MB-231,65.1%
same,viability at 10 µM,EKVX,54.4%
same,viability at 10 µM,RPMI-8226,45.7%
same,viability at 10 µM,NCI-H226,44.3%
same,viability at 10 µM,NCI-H522,57.9%
same,viability at 10 µM,NCI-H23,64.9%
same,viability at 10 µM,OVCAR-8,46.8%
same,viability at 10 µM,HCT-15,34.6%
same,viability at 10 µM,DU-145,64.5%
same,viability at 10 µM,UO-31,22.8%
same,viability at 10 µM,SF-295,71.4%
same,viability at 10 µM,IGROV-1,16.5%
O=C(NCCNc1nccc(-c2c(-c3cccc(F)c3)nc3sccn23)n1)c1ccc(Cl)cc1,viability at 10 µM,NCI-H322M,66.3%
same,viability at 10 µM,TK-10,75.4%
same,viability at 10 µM,CAKI-1,41.5%
same,viability at 10 µM,MCF7,27.7%
same,viability at 10 µM,NCI/ADR-RES,74.3%
same,viability at 10 µM,SF-539,90%
same,viability at 10 µM,Malme-3M,34.9%
same,viability at 10 µM,HOP-92,87.1%
same,viability at 10 µM,U-251,66.1%
same,viability at 10 µM,M14,38.8%
same,viability at 10 µM,A549,34.8%
same,viability at 10 µM,LOX IMVI,43.4%
same,viability at 10 µM,OVCAR-5,88.3%
same,viability at 10 µM,SNB-75,63.5%
same,viability at 10 µM,HOP-62,91.9%
same,viability at 10 µM,Hs-578T,74.8%
same,viability at 10 µM,MDA-MB-435,32%
same,viability at 10 µM,HCT-116,33%
same,viability at 10 µM,PC-3,72.5%
same,viability at 10 µM,SF-268,67.9%
same,viability at 10 µM,SK-MEL-2,62.5%
same,viability at 10 µM,SNB-19,71.9%
same,viability at 10 µM,UACC-257,76%
same,viability at 10 µM,BT-549,75.9%
same,viability at 10 µM,SR,46.5%
same,viability at 10 µM,SW-620,65.2%
same,viability at 10 µM,RXF 393,72.9%
same,viability at 10 µM,SK-MEL-5,33.6%
same,viability at 10 µM,HCC 2998,90.1%
same,viability at 10 µM,MDA-MB-231,65.5%
same,viability at 10 µM,EKVX,63.2%
same,viability at 10 µM,RPMI-8226,62.4%
same,viability at 10 µM,NCI-H226,51.2%
same,viability at 10 µM,NCI-H522,68.4%
same,viability at 10 µM,NCI-H23,73.5%
same,viability at 10 µM,OVCAR-8,55.1%
same,viability at 10 µM,HCT-15,40.1%
same,viability at 10 µM,DU-145,71%
same,viability at 10 µM,UO-31,28.1%
same,viability at 10 µM,SF-295,73.8%
same,viability at 10 µM,IGROV-1,22.5%
